In the NIST ThermoML archive (doi:10.1016/j.jct.2009.10.009):
Several values for one entry are separate records, joined by “and”; a condition that tells them apart may be missing. Identical values can stand only once. ± gives the expanded uncertainty stated by the source.

Settings: Crystal, Calculated from knudsen effusion weight loss

**Q.** For `O=Cc1cccc(O)c1` [3-hydroxybenzaldehyde], which “vapor or sublimation pressure” value (312.17 K) is on record?
**A.** 0.000139 ± 7e-06 kPa and 0.000134 ± 7e-06 kPa and 0.000131 ± 7e-06 kPa

**Q.** And the “vapor or sublimation pressure” value (314.2 K)?
**A.** 0.000177 ± 9e-06 kPa and 0.000171 ± 9e-06 kPa and 0.000168 ± 8e-06 kPa

**Q.** And the “vapor or sublimation pressure” value (316.2 K)?
**A.** 0.000233 ± 1.2e-05 kPa and 0.00022 ± 1.1e-05 kPa and 0.000216 ± 1.1e-05 kPa

**Q.** What about the “vapor or sublimation pressure” value (318.19 K) of the same molecule?
**A.** 0.00028 ± 1.4e-05 kPa and 0.000275 ± 1.4e-05 kPa and 0.000288 ± 1.4e-05 kPa

**Q.** And the “vapor or sublimation pressure” value (320.18 K)?
**A.** 0.000377 ± 1.9e-05 kPa and 0.000358 ± 1.8e-05 kPa and 0.000353 ± 1.8e-05 kPa

**Q.** What about the “vapor or sublimation pressure” value (322.2 K) of the same molecule?
**A.** 0.000462 ± 2.3e-05 kPa and 0.000453 ± 2.3e-05 kPa and 0.00044 ± 2.2e-05 kPa

**Q.** And the “vapor or sublimation pressure” value (324.17 K)?
**A.** 0.000581 ± 2.9e-05 kPa and 0.000557 ± 2.8e-05 kPa and 0.000542 ± 2.7e-05 kPa

**Q.** What about the “vapor or sublimation pressure” value (326.22 K) of the same molecule?
**A.** 0.000738 ± 3.7e-05 kPa and 0.000712 ± 3.6e-05 kPa and 0.000694 ± 3.5e-05 kPa

**Q.** And the “vapor or sublimation pressure” value (328.18 K)?
**A.** 0.000907 ± 4.5e-05 kPa and 0.000871 ± 4.4e-05 kPa and 0.000849 ± 4.3e-05 kPa

**Q.** And the “vapor or sublimation pressure” value (330.19 K)?
**A.** 0.001139 ± 0.00012 kPa and 0.00109 ± 0.00011 kPa and 0.001058 ± 0.00011 kPa

**Q.** What does the source list for `O=Cc1ccc(O)cc1` [4-hydroxybenzaldehyde]?
**A.** vapor or sublimation pressure (324.2 K): 0.000157 ± 8e-06 kPa and 0.000151 ± 8e-06 kPa and 0.000149 ± 7e-06 kPa; vapor or sublimation pressure (326.16 K): 0.000197 ± 1e-05 kPa and 0.000193 ± 1e-05 kPa and 0.000187 ± 9e-06 kPa; vapor or sublimation pressure (328.31 K): 0.000252 ± 1.3e-05 kPa and 0.000244 ± 1.2e-05 kPa and 0.000242 ± 1.2e-05 kPa; vapor or sublimation pressure (330.18 K): 0.000303 ± 1.5e-05 kPa and 0.000296 ± 1.5e-05 kPa and 0.000308 ± 1.5e-05 kPa; vapor or sublimation pressure (332.16 K): 0.000382 ± 1.9e-05 kPa and 0.000375 ± 1.9e-05 kPa and 0.00037 ± 1.9e-05 kPa; vapor or sublimation pressure (334.18 K): 0.000477 ± 2.4e-05 kPa and 0.000472 ± 2.4e-05 kPa and 0.000463 ± 2.3e-05 kPa; vapor or sublimation pressure (336.22 K): 0.000603 ± 3e-05 kPa and 0.000602 ± 3e-05 kPa and 0.000583 ± 2.9e-05 kPa; vapor or sublimation pressure (338.34 K): 0.000756 ± 3.8e-05 kPa and 0.000738 ± 3.7e-05 kPa and 0.000728 ± 3.6e-05 kPa; vapor or sublimation pressure (340.17 K): 0.000926 ± 4.6e-05 kPa and 0.000905 ± 4.5e-05 kPa and 0.000886 ± 4.4e-05 kPa; vapor or sublimation pressure (341.3 K): 0.001019 ± 0.0001 kPa and 0.001005 ± 0.0001 kPa and 0.000984 ± 4.9e-05 kPa

**Q.** Which “vapor or sublimation pressure” value (296.28 K) does the source give for `CC(C)(C)c1cc(C=O)c(O)c(C(C)(C)C)c1` [3,5-di-tert-butyl-2-hydroxybenzaldehyde] here?
**A.** 0.000151 ± 8e-06 kPa and 0.000143 ± 7e-06 kPa and 0.00014 ± 7e-06 kPa

**Q.** What about the “vapor or sublimation pressure” value (298.16 K) of the same molecule?
**A.** 0.000193 ± 1e-05 kPa and 0.00018 ± 9e-06 kPa and 0.000176 ± 9e-06 kPa

**Q.** And the “vapor or sublimation pressure” value (300.17 K)?
**A.** 0.000248 ± 1.2e-05 kPa and 0.000237 ± 1.2e-05 kPa and 0.000234 ± 1.2e-05 kPa

**Q.** And the “vapor or sublimation pressure” value (302.18 K)?
**A.** 0.000304 ± 1.5e-05 kPa and 0.0003 ± 1.5e-05 kPa and 0.000322 ± 1.6e-05 kPa

**Q.** And the “vapor or sublimation pressure” value (304.15 K)?
**A.** 0.000408 ± 2e-05 kPa and 0.000382 ± 1.9e-05 kPa and 0.000378 ± 1.9e-05 kPa

**Q.** And the “vapor or sublimation pressure” value (306.37 K)?
**A.** 0.000542 ± 2.7e-05 kPa and 0.000514 ± 2.6e-05 kPa and 0.000505 ± 2.5e-05 kPa

**Q.** And the “vapor or sublimation pressure” value (308.18 K)?
**A.** 0.000673 ± 3.4e-05 kPa and 0.000631 ± 3.2e-05 kPa and 0.00062 ± 3.1e-05 kPa

**Q.** And the “vapor or sublimation pressure” value (310.17 K)?
**A.** 0.000861 ± 4.3e-05 kPa and 0.000812 ± 4.1e-05 kPa and 0.000801 ± 4e-05 kPa

**Q.** What about the “vapor or sublimation pressure” value (312.2 K) of the same molecule?
**A.** 0.001099 ± 0.00011 kPa and 0.001032 ± 0.0001 kPa and 0.001014 ± 0.0001 kPa
